Assay [1] relates to Arabidopsis thaliana leaf 3. Briefly: Leaf 3 area of ACC deaminase transgenic lines and wild type after 48 hours on mild mannitol stress. The format is in vivo. As to conditions: wild type of the pGRF5::bACD experiment; 48 hours on 25 mM mannitol. An excerpt: In this experiment we aimed for a downregulation of the ethylene signaling pathway only in proliferating leaf cells (chimeric genes with 2 different meristematic promoters: p4TM1 and pGR5) as compared to a downregulation of the ethylene signaling in the entire plant (chimeric gene with the […] promoter). The transgene which was used for downregulation of the ethylene signaling was the ACC deaminase (a bacterial form and a plant form), an enzyme that degrades the ethylene precursor ACC. […]
Plant were transferred to plates containing 25 mM mannitol, hereby exposing them to mild mannitol stress, at a stage where the third leaf is fully proliferating, allowing to study the response of proliferating leaf cells to stress. After 48 hours on mild mannitol stress, leaf 3 was microdissected and its size was measured to calculate the extent of growth inhibition. […]
The plant growth and stress set-up was the same as previously described (Skirycz et al (2011) Plant Cell 23: 1876-1888). […] Slides were photographed, and leaf area was measured using ImageJ 1.41o.

Assay [2] has as its system proliferating leaf primordia transcriptome. Briefly: ATH1 whole-genome transcript profiling of proliferating leaf primordia. The assay is classed as in vivo, Arabidopsis thaliana. An excerpt:
To obtain a better understanding of the molecular mechanisms inhibiting cell division during stress, we subjected proliferating leaf primordia to whole-genome transcript profiling. […] Selected microarray data could be validated with a nCounter platform containing probes for 100 genes involved in growth, stress, and hormonal regulation. Differential transcripts were used to construct Venn diagrams and were subjected to k-means clustering. […] Subsequently, the differential transcripts were examined with PageMan to calculate the functional overrepresentation of MapMan categories (Thimm et al., 2004; Usadel et al., 2006) and were compared to selected publicly available microarray experiments (see “Materials and Methods”). To explain the reduced cell proliferation rates, cell cycle genes were among the prime suspects. […] Strikingly, the magnitude of change for all of the above-mentioned cell cycle genes was similar (approximately 30%) and occurred only at 24 h (FIG. 6A). Besides the cell cycle-related transcripts, we were particularly interested in genes related to hormonal signaling.
Leaf 3 was harvested from plants at 1.5, 3, 12, and 24 h. Briefly, whole seedlings were harvested in an excess of RNAlater solution (Ambion) and, after overnight storage at 4° C., dissected under a binocular microscope on a cooling plate with precision microscissors. Dissected leaves were transferred to a new tube, frozen in liquid nitrogen, and ground with a Retsch machine and 3-mm metal balls. Samples were obtained from three independent biological experiments and from multiple plates within the experiment.
RNA was extracted with TriZol (Invitrogen) according to the manufacturer's instructions with 4 μg of glycogen as carrier during the precipitation step. RNA samples were subjected to DNA digestion with RNase-free DNase I (Roche) and subsequently cleaned up with the RNeasy Mini Kit (Qiagen).
RNA samples were hybridized to single Affymetrix ATH1 Genome arrays at the VIB Microarray Facility (Leuven, Belgium). Expression data were processed with Robust Multichip Average (RMA) (background correction, normalization, and summarization) as implemented in BioConductor (Irizarry et al., 2003a, 2003b; Gentleman et al., 2004). An alternative cdf (“tinesath1cdf”) was used, in which each probe is uniquely assigned to one transcript (Casneuf et al., 2007) (http://www.bioconductor.org/packages/release/data/experiment/html/tinesath1cdf.html). The BioConductor package Limma was used to identify differentially expressed genes (Smyth, 2004). For comparisons of interest, moderated t statistics were calculated using the eBayes function and P values were corrected for multiple testing for each contrast separately using topTable. False-discovery rate (FDR)-corrected p-value<0.05 was used as a cut-off (Benjamini and Hochberg, 1995).

Where [3] appears, read: 1.5 h after transfer to 25 mM mannitol.
The mark [4] stands for this setting: 3 h after transfer to 25 mM mannitol.
Setting [5] is: 12 h after transfer to 25 mM mannitol.
Where [6] appears, read: 24 h after transfer to 25 mM mannitol.

`OC[C@@H](O)[C@@H](O)[C@H](O)[C@H](O)CO` [mannitol]: the “growth inhibition of leaf 3 area” value in assay [1] was “about 10%”. The “number of down-regulated transcripts” value was 31 in assay [2] (setting [3]), 145 in assay [2] (setting [4]), 84 in assay [2] (setting [5]) and 622 in assay [2] (setting [6]). Besides, the “number of up-regulated transcripts” value in assay [2] (setting [3]) was 27; in assay [2] (setting [4]), 189; in assay [2] (setting [5]) it was 351; in assay [2] (setting [6]) it was 886. The “magnitude of change (down-regulation) of cell cycle genes” value in assay [2] (24 h after stress onset) was “approximately 30%”.

(Values after US20140130208A1, “METHODS AND MEANS TO PRODUCE ABIOTIC STRESS TOLERANT PLANTS” (VIB VZW, priority 2011, published 2014).)
